The source made the active and inactive calls. The rule behind the calls is not given here.
Columns and labels:
[1] = molecular target: T1, Programmed cell death protein 1/Programmed cell death 1 ligand 1 (Homo sapiens, UniProt Q9NZQ7); experiment: Inhibition of PD-1/PD-L1 (unknown origin) interaction assessed as inhibition rate at 1 uM by HTRF assay relative to control; assay type: protein-complex assay
[2] = molecular target: T1, Programmed cell death protein 1/Programmed cell death 1 ligand 1; experiment: Inhibition of PD-1/PD-L1 (unknown origin) interaction assessed as inhibition rate by HTRF assay; assay type: protein-complex assay
[3] = molecular target: Histone deacetylase 3 (Homo sapiens, UniProt O15379); experiment: Inhibition of human recombinant HDAC3 using Ac-Leu-Gly-Lys (Ac)-AMC as substrate preincubated for 10 mins followed by substrate addition and measured after 45 mins by TECAN microtiter plate reader analysis
[4] = tested on: B16-F10; experiment: Antiproliferative activity against mouse B16-F10 cells assessed as cell growth inhibition incubated for 48 hrs by MTT assay; assay type: functional, cell-based; details: B16-F10, 48 h
[5] = tested on: A-375; experiment: Antiproliferative activity against human A-375 cells assessed as cell growth inhibition incubated for 48 hrs by MTT assay; assay type: functional, cell-based; details: A-375, 48 h
[6] = tested on: HepG2; experiment: Antiproliferative activity against human HepG2 cells assessed as cell growth inhibition incubated for 48 hrs by MTT assay; assay type: functional, cell-based; details: HepG2, 48 h
[7] = tested on: 4T1; experiment: Antiproliferative activity against mouse 4T1 cells assessed as cell growth inhibition incubated for 48 hrs by MTT assay; assay type: functional, cell-based; details: 4T1, 48 h
[8] = tested on: MDA-MB-231; experiment: Antiproliferative activity against human MDA-MB-231 cells assessed as cell growth inhibition incubated for 48 hrs by MTT assay; assay type: functional, cell-based; details: MDA-MB-231, 48 h
[9] = tested on: HCT-116; experiment: Antiproliferative activity against human HCT-116 cells assessed as cell growth inhibition incubated for 48 hrs by MTT assay; assay type: functional, cell-based; details: HCT-116, 48 h
[10] = molecular target: T2, Histone deacetylase 3 (Mus musculus) (UniProt O88895); experiment: Inhibition of HDAC3 in mouse B16-F10 cells assessed as upregulation of Ac-H3 level at 3 uM incubated for 24 hrs by Western blotting analysis; assay type: cell-based
T2 sequence (whole entry): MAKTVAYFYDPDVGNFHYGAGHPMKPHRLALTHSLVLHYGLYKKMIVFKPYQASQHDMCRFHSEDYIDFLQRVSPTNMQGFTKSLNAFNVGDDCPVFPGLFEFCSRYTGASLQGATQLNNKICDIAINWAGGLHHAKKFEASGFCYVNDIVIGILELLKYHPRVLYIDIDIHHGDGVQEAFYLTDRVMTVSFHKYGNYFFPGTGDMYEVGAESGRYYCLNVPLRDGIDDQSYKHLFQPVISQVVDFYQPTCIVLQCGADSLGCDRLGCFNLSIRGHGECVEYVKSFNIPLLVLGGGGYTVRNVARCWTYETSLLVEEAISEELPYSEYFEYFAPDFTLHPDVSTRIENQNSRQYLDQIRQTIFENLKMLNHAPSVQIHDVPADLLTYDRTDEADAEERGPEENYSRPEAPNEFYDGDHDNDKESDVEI

[11] = tested on: B16-F10; experiment: Induction of apoptosis in mouse B16-F10 cells assessed as viable cells at 4 uM incubated for 48 hrs by Annexin V-FITC/PI staining based flow cytometry analysis (reference value: 92.3%); assay type: functional; details: read-out: Activity
[12] = tested on: B16-F10; experiment: Induction of apoptosis in mouse B16-F10 cells assessed as early apoptotic cells at 4 uM incubated for 48 hrs by Annexin V-FITC/PI staining based flow cytometry analysis (reference value: 0.45 %); assay type: functional
[13] = tested on: B16-F10; experiment: Induction of apoptosis in mouse B16-F10 cells assessed as late apoptotic cells at 4 uM incubated for 48 hrs by Annexin V-FITC/PI staining based flow cytometry analysis (reference value: 5.02 %); assay type: functional
[14] = tested on: B16-F10; experiment: Induction of apoptosis in mouse B16-F10 cells assessed as necrotic cells at 4 uM incubated for 48 hrs by Annexin V-FITC/PI staining based flow cytometry analysis (reference value: 2.24%); assay type: functional
[15] = tested on: B16-F10; experiment: Induction of cell cycle arrest in mouse B16-F10 cells assessed as accumulation of cells at G0/G1 phase at 4 uM incubated for 48 hrs by PI staining based flow cytometry analysis (reference value: 70.09%); assay type: functional
[16] = tested on: B16-F10; experiment: Induction of cell cycle arrest in mouse B16-F10 cells assessed as accumulation of cells at G2/M phase at 4 uM incubated for 48 hrs by PI staining based flow cytometry analysis (reference value: 5.87%); assay type: functional
[17] = tested on: B16-F10; experiment: Induction of cell cycle arrest in mouse B16-F10 cells assessed as accumulation of cells at S phase at 4 uM incubated for 48 hrs by PI staining based flow cytometry analysis (reference value: 24.04%); assay type: functional
[18] = tested on: B16-F10; experiment: Antitumor activity against mouse B16-F10 cells implanted in C57BL/6J mouse assessed as tumor growth inhibition at 20 mg/kg, ip administered once daily for 9 days; assay type: functional; details: B16-F10, 216 h, time 9 day, read-out: TGI
[19] = tested on: B16-F10; experiment: Antitumor activity against mouse B16-F10 cells implanted in C57BL/6J mouse assessed as tumor growth inhibition at 20 mg/kg, ip administered once daily for 9 days in presence of MS-275; assay type: functional; details: B16-F10, 216 h, time 9 day, read-out: TGI
[20] = Toxicity in C57BL/6J mouse implanted with mouse B16-F10 cells assessed as body weight loss at 20 mg/kg, ip administered once daily for 9 days; assay type: organism-based; details: in vivo, 216 h, time 9 day
[21] = Toxicity in C57BL/6J mouse implanted with mouse B16-F10 cells assessed as body weight loss at 20 mg/kg, ip administered once daily for 5 days in presence of MS-275; assay type: organism-based; details: in vivo, 120 h, time 5 day
[22] = Toxicity in C57BL/6J mouse implanted with mouse B16-F10 cells assessed as animal death at 20 mg/kg, ip administered once daily for 5 days in presence of MS-275; assay type: organism-based; details: in vivo, 120 h, time 5 day
[23] = tested on: B16-F10; experiment: Immunomodulatory activity in mouse B16-F10 cells implanted in C57BL/6J mouse assessed as percentage of CD3 positive CD8 positive cells in tumor at 20 mg/kg, ip administered once daily for 9 days by flow cytometric analysis (reference value: 0.44 %); assay type: functional; details: time 9 day
[24] = tested on: B16-F10; experiment: Immunomodulatory activity in mouse B16-F10 cells implanted in C57BL/6J mouse assessed as percentage of CD3 positive CD8 positive cells in tumor at 10 mg/kg, ip administered once daily for 9 days in presence of MS-275 by flow cytometric analysis (reference value: 0.44 %); assay type: functional; details: time 9 day
[25] = tested on: B16-F10; experiment: Immunomodulatory activity in mouse B16-F10 cells implanted in C57BL/6J mouse assessed as percentage of CD3 positive CD4 positive cells in tumor at 20 mg/kg, ip administered once daily for 9 days by flow cytometric analysis (reference value: 0.20 %); assay type: functional; details: time 9 day
[26] = tested on: B16-F10; experiment: Immunomodulatory activity in mouse B16-F10 cells implanted in C57BL/6J mouse assessed as percentage of CD3 positive CD4 positive cells in tumor at 10 mg/kg, ip administered once daily for 9 days in presence of MS-275 by flow cytometric analysis (reference value: 0.20 %); assay type: functional; details: time 9 day

T1 sequence (Q15116 whole entry): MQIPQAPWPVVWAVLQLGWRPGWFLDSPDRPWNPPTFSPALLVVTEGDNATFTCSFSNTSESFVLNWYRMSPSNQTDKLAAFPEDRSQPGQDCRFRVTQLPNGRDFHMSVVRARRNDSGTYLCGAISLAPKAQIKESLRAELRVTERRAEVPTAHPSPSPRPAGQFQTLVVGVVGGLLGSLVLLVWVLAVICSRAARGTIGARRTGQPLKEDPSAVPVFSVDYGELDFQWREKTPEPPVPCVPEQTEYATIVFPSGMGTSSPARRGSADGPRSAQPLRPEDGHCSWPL
T1 sequence (Q9NZQ7 whole entry): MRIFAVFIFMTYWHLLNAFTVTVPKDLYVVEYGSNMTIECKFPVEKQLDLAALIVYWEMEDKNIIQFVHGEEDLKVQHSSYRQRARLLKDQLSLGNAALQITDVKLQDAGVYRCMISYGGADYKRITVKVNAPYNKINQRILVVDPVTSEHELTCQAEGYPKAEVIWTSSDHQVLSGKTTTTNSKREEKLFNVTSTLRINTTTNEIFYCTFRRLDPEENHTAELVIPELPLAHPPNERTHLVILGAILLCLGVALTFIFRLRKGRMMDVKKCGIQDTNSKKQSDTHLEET
Chain of Histone deacetylase 3 (O15379 whole entry): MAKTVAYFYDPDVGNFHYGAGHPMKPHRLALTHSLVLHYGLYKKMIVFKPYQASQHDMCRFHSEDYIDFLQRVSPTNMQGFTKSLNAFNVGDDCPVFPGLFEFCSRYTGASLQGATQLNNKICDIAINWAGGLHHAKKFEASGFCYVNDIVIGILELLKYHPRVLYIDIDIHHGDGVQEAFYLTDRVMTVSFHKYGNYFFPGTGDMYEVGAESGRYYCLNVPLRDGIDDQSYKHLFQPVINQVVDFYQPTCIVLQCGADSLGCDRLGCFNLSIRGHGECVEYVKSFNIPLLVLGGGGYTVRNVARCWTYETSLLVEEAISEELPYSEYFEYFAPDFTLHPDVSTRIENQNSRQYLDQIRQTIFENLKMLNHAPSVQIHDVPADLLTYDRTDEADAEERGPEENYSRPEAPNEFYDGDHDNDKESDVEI

**Q.** For Cc1c(COc2cc(OCc3cccc(C#N)c3)c(CNC(C)(C)C(=O)O)cc2Cl)cccc1-c1ccccc1, which IC50 [1] is on record?
**A.** The IC50 was 0.0683 µM.

**Q.** What about the IC50 [2] of the same molecule?
**A.** The IC50 was 0.0683 µM.

**Q.** What about the IC50 [3] of the same molecule?
**A.** Its IC50 is over 10 µM.

**Q.** What about the IC50 [4] of the same molecule?
**A.** The IC50 was over 50 µM.

**Q.** What about the IC50 [5] of the same molecule?
**A.** Its IC50 is over 50 µM.

**Q.** And the IC50 [6]?
**A.** The IC50 was over 50 µM.

**Q.** And the IC50 [7]?
**A.** Its IC50 is over 50 µM.

**Q.** And the IC50 [8]?
**A.** The IC50 was over 50 µM.

**Q.** And the IC50 [9]?
**A.** Its IC50 is over 50 µM.

**Q.** And the inhibition [10]?
**A.** Its inhibition is “inactive”.

**Q.** What about the viability at 4 µM [11] of the same molecule?
**A.** Its viability at 4 µM is 93.6%.

**Q.** And the Activity [12]?
**A.** The Activity was 0.47%.

**Q.** What about the Activity [13] of the same molecule?
**A.** Its Activity is 3.95%.

**Q.** What about the Activity [14] of the same molecule?
**A.** Its Activity is 1.96%.

**Q.** And the Activity [15]?
**A.** The Activity was 70.67%.

**Q.** What about the Activity [16] of the same molecule?
**A.** Its Activity is 5.05%.

**Q.** What about the Activity [17] of the same molecule?
**A.** The Activity was 24.28%.

**Q.** What about the inhibition in vivo at 20 mg/kg [18] of the same molecule?
**A.** The inhibition in vivo at 20 mg/kg was 30.8%.

**Q.** What about the inhibition in vivo at 20 mg/kg [19] of the same molecule?
**A.** Its inhibition in vivo at 20 mg/kg is 37%.

**Q.** And the Activity [20]?
**A.** The Activity was “Non-toxic”.

**Q.** What about the Activity [21] of the same molecule?
**A.** Its Activity is “Toxic”.

**Q.** And the Activity [22]?
**A.** The Activity was “Toxic”.

**Q.** What about the Activity [23] of the same molecule?
**A.** Its Activity is 2.68%.

**Q.** And the Activity [24]?
**A.** Its Activity is 3.34%.

**Q.** What about the Activity [25] of the same molecule?
**A.** The Activity was 0.78%.

**Q.** What about the Activity [26] of the same molecule?
**A.** The Activity was 1.89%.
